Measured values from US20250368638A1, “BICYCLIC INHIBITORS OF NICOTINAMIDE […], COMPOSITIONS AND USES THEREOF” (President and Fellows of Harvard College, priority 2021, published 2025).
Where “and” joins values, the source holds several entries; their conditions need not be identical. Equal values may be shown once.

Legend:
[1] = target: T1, recombinant human NNMT (Homo sapiens, UniProt P40261); experiment: in vitro NNMT enzyme inhibition assay (Promega MTase-Glo Methyltransferase Assay); type: biochemical; settings: 40 nM recombinant human NNMT, 8 μM nicotinamide, 6.7 μM SAM, 20 minutes
T1 sequence (P40261 1-264): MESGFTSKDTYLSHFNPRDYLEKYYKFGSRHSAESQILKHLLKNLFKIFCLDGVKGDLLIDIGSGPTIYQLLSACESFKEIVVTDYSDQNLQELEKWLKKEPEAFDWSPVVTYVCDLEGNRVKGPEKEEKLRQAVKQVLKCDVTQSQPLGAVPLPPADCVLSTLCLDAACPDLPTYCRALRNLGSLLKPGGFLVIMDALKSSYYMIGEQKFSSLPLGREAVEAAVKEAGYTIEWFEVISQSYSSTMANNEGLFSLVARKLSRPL
Method: NNMT biochemical activity for was evaluated using the Promega Mtase-Glo Methyltransferase Assay kit. Assays were performed in a white, flat-bottomed 96 well plate. […] Reactions were performed for 20 minutes at room temperature. MTase-Glo reagent and MTase-Glo detection solution were added according to manufacturer's instructions and luminescence signal measured with a SpectraMax i3 plate reader and data analyzed with GraphPad Prism version 9. Scheme 16 depicts a visual summary of the Promega MTase-Glo Methyltransferase assay used to assess biochemical activity of novel inhibitors.

[2] = tested on: Salmonella typhimurium (TA98, TA1535, TA1537) and Escherichia coli WP2uvrA (pKM101); experiment: Mini-Ames test; type: cell-based
Method: 1. The study evaluated the mutagenic potential of the test article, (or its metabolites) by measuring its ability to induce reverse mutations at selected loci of bacteria Salmonella typhimurium (TA98, TA1535, TA1537) and Escherichia coli WP2uvrA (pKM101) in both the presence and absence of microsomal enzymes.
2. […] Top agar containing 0.6% (w/v) agar and 0.5% (w/v) sodium chloride were supplemented with 0.5 mM D-biotin and 0.5 mM L-histidine for Salmonella typhimurium strains used or 0.5 mM D-biotin and 0.5 mM L-tryptophan for Escherichia coli WP2uvrA (pKM101) used.
3. In the Mini-Ames test, 4 strains were selected for testing: Salmonella typhimurium (TA98, TA1535.TA1537) and Escherichia coli WP2uvrA (pKM101). The test strains were prepared from frozen working stocks. 10 μL frozen working stock adding in 5 mL nutrient broth were incubated with 220 rpm shaking at 37±2° C. for 10 hours until an optical density (at 650 nm) of 0.6-0.8 were reached. The overnight culture were used for the mutagenicity test.
4. The test article was supplied as the powder and maintained at −20° C. until use. Stock solutions were prepared at 50 mg/mL in DMSO (Table 11A). […]
7. […] If the precipitation dose interfere with the scoring (count the number of the revertants), the lowest precipitating dose should be used as the top dose scored. […]
Background lawns are measured microscopically using a stereoscope. […]

SMILES: C[C@@H]1Cc2cc(C(N)=O)cnc2N1 [Compound 11, (2R)-2-methyl-2,3-dihydro-1H-pyrrolo[2,3-b]pyridine-5-carboxamide]
- IC50 [1]: 35 nM and 35 to 42 nM
- F value (Mini Ames) ([2]; all tested concentrations, every strain, with and without an S9 Fraction): less than 2
- Mutagenicity (Mini-Ames) ([2]; various bacteria strains, with and without S9): not mutagenic
